The values below come from ChEMBL document CHEMBL6103622 (J Med Chem, 2025).

For orientation: IC50 means the midpoint of a concentration-inhibition curve.

SMILES strings stand for the structures. Calls of active or inactive are those of the source. No cut-off for these calls is given here.

Experiment [1] concerns the target Macrophage colony-stimulating factor 1 receptor (Homo sapiens, UniProt P07333). In words: Inhibition of CSF-1R (unknown origin).
The target of experiment [2] is T1, Macrophage colony-stimulating factor 1 receptor (Mus musculus) (UniProt P09581).
T1 sequence (whole entry): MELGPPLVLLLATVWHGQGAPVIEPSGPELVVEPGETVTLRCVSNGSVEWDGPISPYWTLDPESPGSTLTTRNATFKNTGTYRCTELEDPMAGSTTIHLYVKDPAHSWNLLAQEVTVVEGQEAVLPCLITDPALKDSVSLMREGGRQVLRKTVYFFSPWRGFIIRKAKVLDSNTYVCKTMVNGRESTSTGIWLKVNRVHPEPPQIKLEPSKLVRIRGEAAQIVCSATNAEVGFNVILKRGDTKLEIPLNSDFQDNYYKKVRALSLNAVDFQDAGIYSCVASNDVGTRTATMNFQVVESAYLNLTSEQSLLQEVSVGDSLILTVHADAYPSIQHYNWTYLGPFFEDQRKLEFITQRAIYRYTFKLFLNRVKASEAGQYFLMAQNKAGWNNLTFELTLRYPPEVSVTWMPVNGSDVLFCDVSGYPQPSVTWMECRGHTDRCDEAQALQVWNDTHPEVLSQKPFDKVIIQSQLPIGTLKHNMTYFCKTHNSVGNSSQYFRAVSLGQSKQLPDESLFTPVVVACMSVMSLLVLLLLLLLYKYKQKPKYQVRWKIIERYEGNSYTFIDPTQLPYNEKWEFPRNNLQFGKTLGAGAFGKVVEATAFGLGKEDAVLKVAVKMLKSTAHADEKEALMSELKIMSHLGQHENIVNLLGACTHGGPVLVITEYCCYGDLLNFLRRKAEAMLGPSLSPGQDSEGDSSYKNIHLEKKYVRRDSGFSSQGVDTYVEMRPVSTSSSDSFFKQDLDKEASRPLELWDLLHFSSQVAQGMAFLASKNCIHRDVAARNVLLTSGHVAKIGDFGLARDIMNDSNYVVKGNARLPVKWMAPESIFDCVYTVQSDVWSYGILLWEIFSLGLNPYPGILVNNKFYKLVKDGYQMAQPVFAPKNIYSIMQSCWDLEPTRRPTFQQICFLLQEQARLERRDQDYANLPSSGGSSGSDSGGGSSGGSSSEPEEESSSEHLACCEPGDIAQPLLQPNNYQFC
In words: Inhibition of CSF-1R signaling pathway activation in female C57BL/6 mouse BMDM cells assessed as reduction in CSF-1R phosphorylation at 100 nM preincubated with compounds for 4 hrs followed by M-CSF stimulation and measured after 30 mins by Western blot analysis. To be noted: time 4.5 hrs. It is filed as cell-based. For orientation: Immunoblotting shows a protein as a band on a membrane.

Experiment [3] concerns the target T1, Macrophage colony-stimulating factor 1 receptor (Mus musculus). In words: Inhibition of CSF-1R signaling pathway activation in female C57BL/6 mouse BMDM cells assessed as reduction in CSF-1R phosphorylation at Tyr723 residue at 100 nM preincubated with compounds for 4 hrs followed by M-CSF stimulation and measured after 30 mins by Western blot analysis. To be noted: time 4.5 hrs. Format: cell-based.

Experiment [4] has the same target. In words: Inhibition of CSF-1R signaling pathway activation in female C57BL/6 mouse BMDM cells assessed as reduction in AKT phosphorylation at Ser473 residue at 100 nM preincubated with compounds for 4 hrs followed by M-CSF stimulation and measured after 30 mins by Western blot analysis. It is filed as cell-based. The note with it: time 4.5 hrs.
Experiment [5] deals with MC-38. The experiment in a line: Induction of apoptosis in mouse MC38 cells assessed as late apoptotic cells at 100 nM by Annexin V/PI staining based flow cytometric analysis (reference value: 0.85 %). Format: functional. (Flow cytometry measures light scatter and fluorescence of single cells or particles in a stream.)
Experiment [6] deals with MC-38. In words: Induction of apoptosis in mouse MC38 cells cocultured with condition medium of M2 macrophages assessed as late apoptotic cells at 100 nM by Annexin V/PI staining based flow cytometric analysis (reference value: 1.66 %). It is filed as functional.
The test system of experiment [7] is MC-38. In words: Induction of apoptosis in mouse MC38 cells cocultured with condition medium of M2 macrophages assessed as early apoptotic cells at 100 nM by Annexin V/PI staining based flow cytometric analysis (reference value: 3.16 %). It is filed as functional.
Experiment [8] deals with MC-38. The experiment in a line: Induction of apoptosis in mouse MC38 cells assessed as early apoptotic cells at 100 nM by Annexin V/PI staining based flow cytometric analysis (reference value: 1.91 %). Format: functional.

Macrophage colony-stimulating factor 1 receptor, sequence (P07333 whole entry): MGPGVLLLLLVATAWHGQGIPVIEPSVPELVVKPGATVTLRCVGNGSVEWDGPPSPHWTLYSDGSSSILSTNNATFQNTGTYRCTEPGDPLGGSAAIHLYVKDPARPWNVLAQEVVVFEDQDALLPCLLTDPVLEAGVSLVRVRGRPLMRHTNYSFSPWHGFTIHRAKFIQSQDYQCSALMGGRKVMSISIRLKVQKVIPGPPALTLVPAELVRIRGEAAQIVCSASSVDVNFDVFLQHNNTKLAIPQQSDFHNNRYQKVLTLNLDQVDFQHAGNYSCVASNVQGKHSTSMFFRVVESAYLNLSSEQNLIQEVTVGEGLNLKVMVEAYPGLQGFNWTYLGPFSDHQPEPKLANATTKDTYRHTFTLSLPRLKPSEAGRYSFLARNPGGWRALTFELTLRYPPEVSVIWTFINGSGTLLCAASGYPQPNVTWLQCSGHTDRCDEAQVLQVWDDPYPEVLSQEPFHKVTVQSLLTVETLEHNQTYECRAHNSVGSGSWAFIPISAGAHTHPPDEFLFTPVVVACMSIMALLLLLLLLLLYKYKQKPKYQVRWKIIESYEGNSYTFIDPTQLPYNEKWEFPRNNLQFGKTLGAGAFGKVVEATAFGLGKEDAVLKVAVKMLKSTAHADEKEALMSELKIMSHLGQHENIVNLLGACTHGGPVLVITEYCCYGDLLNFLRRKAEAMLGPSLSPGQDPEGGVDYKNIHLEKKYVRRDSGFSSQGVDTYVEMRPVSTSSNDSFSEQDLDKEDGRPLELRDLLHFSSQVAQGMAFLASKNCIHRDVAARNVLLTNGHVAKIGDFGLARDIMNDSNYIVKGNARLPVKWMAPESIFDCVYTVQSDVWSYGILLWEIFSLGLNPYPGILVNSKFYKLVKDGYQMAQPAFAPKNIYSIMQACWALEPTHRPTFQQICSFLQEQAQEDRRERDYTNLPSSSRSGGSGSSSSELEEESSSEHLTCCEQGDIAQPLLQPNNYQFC

`O=C(Nc1ccc(Oc2c[nH]c3ncc(Cl)cc23)cc1)N[C@@H]1CCCC[C@H]1O` displayed an IC50 in experiment [1] of 43.5 nM.

`Cc1nc(NC(=O)Nc2ccc(C(F)(F)F)nc2)ccc1Oc1c[nH]c2ncc(Cl)cc12` yielded a 50% inhibitory concentration (IC50) in experiment [1] of 152 nM.

`O[C@@H]1CCCC[C@H]1Nc1nc2ccc(Oc3c[nH]c4ncc(Cl)cc34)cc2s1` gave an IC50 in experiment [1] of 25.8 nM. Besides, the inhibition result in experiment [2] was “Active; Weak Inhibitory Effect Observed”.

In experiment [1], `Cc1nc(NC(=O)Nc2ccc(C(F)(F)F)cc2)ccc1Oc1c[nH]c2ncc(Cl)cc12` displayed an IC50 of 48.9 nM.

In experiment [1], `COc1cc(NC(=O)Nc2ccc(Oc3c[nH]c4ncc(Cl)cc34)c(C)n2)ccc1C(F)(F)F` displayed an IC50 of 131 nM.

On to `Cc1nc(NC(=O)Nc2cc(C(C)(C)C)no2)ccc1Oc1c[nH]c2ncc(Cl)cc12`, for which, in experiment [1], the IC50 was over 1000 nM.

For `O[C@@H]1CCCC[C@H]1Nc1nc2ccc(Oc3c[nH]c4nccc(F)c34)cc2s1`, in experiment [1], half-maximal inhibition (IC50) required 41.4 nM.

Molecule `FC(F)(F)c1ccc(Nc2nc3ccc(Oc4c[nH]c5ncc(Cl)cc45)cc3s2)cc1` showed an IC50 in experiment [1] of 56.5 nM.

In experiment [1], `Cc1nc(NC(=O)Nc2ccc(C(C)(C)C)c(Cl)c2)ccc1Oc1c[nH]c2ncc(Cl)cc12` returned a concentration for half-maximal inhibition (IC50) of over 1000 nM.

In the case of `Cc1nc(NC(=O)Nc2ccc(F)cc2)ccc1Oc1c[nH]c2ncc(Cl)cc12`, 85.6 nM corresponded to half-maximal inhibition in experiment [1] (IC50).

`COc1cc(NC(=O)Nc2ccc(Oc3c[nH]c4ncc(Cl)cc34)c(C)n2)cc(OC)c1OC` displayed a half-inhibitory concentration (IC50) in experiment [1] of 23.8 nM. The inhibition entry in experiment [3] and in experiment [4] was “Active; Minimal Effect Observed” throughout.

On to `O[C@@H]1CCCC[C@H]1Nc1nc2ccc(Oc3c[nH]c4ncc(F)cc34)cc2s1`, for which 30.6 nM corresponded to half-maximal inhibition in experiment [1] (IC50). Also, the inhibition entry in experiment [2] was “Active; Weak Inhibitory Effect Observed”.

As to `Cc1nc(NC(=O)Nc2cccc(C(F)(F)F)c2)ccc1Oc1c[nH]c2ncc(Cl)cc12`, in experiment [1], half-maximal inhibition (IC50) required 372 nM.

For `FC(F)(F)c1ccc(CNc2ccc(Cc3c[nH]c4ncc(Cl)cc34)cn2)cn1` [PEXIDARTINIB], the Activity in the experiment with MC-38 [5] was 0.83%; in the experiment with MC-38 [6] it was 2.25%; in the experiment on MC-38 [7], 8.49%; in the experiment on MC-38 [8], 1.8%.

Turning to `Cc1nc(NC(=O)Nc2ccc(N3CCN(C)CC3)cc2)ccc1Oc1c[nH]c2ncc(Cl)cc12`, half-maximal inhibition in experiment [1] (IC50) required 593 nM.

`Cc1nc(NC(=O)NCc2ccc(C(F)(F)F)nc2)ccc1Oc1c[nH]c2ncc(Cl)cc12` registered an IC50 in experiment [1] of 406 nM.

On to `OC[C@H](Nc1nc2ccc(Oc3c[nH]c4ncc(Cl)cc34)cc2s1)C1CCCCC1`, for which the IC50 in experiment [1] was over 1000 nM.

With `Cc1nc(NC(=O)Nc2cccc(Cl)c2)ccc1Oc1c[nH]c2ncc(Cl)cc12`, it took 34.6 nM to reach half-maximal inhibition in experiment [1] (IC50). Moreover, the inhibition entry in experiment [3] and in experiment [4] was “Active; Minimal Effect Observed” throughout.

For the molecule `O[C@@H]1CCCC[C@H]1Nc1nc2ccc(Cc3c[nH]c4ncc(Cl)cc34)cc2s1`, the IC50 in experiment [1] was determined as 49.4 nM. For the same molecule, the inhibition result in experiment [2] is “Active; Weak Inhibitory Effect Observed”.
